Test results from patent US20020071842A1, “Soluble CD1 compositions and uses thereof” (priority 2000, published 2002).

Columns and labels:
Test in all cases: Plate-bound mCD1d fusion protein hybridoma stimulation assay (IL-2 ELISA)
Format in all cases: cell-based, mouse
24.8.A hybridoma = conditions: 24.8 A NKT hybridoma; plate-bound mCD1d-IgGFc2a fusion protein preincubated with lipid antigen
Source text: (§1) The CD1d-restricted T cell clones 24.7, 24.8, 24.9 (NKT cell) and 14S.6, 14S.7, 14S.10, and 14S.15 (diverse TCRs) were all derived from spleen of wild type C57BL/6 mice, as described previously (Behar, S. M. et al., J. Immunol., 162:161-7 (1999)). To generate T cell hybridomas, the activated T cells were fused to the aminopterin-sensitive BW5147 αβTCR^− thymoma cell line using PEG1500, and hybrids were selected in HAT medium (Life Technologies, Gaithersburg, Md.). Resulting TT hybridomas were tested for recognition of RMA-S cells transfected with mCD1D1 compared to untransfected RMA-S cells, as described below. […] The hybridomas are distinguished from the original T cell clones by the addition of a letter to their names. The KT/7, KT/12, KT/22, and KT/23 and Vβ/9 NKT cell hybridomas were derived from NK1.1^+ T cells enriched from spleen of C57BL/6 mice by depletion of CD8+ T cells, naive T cells, and B cells by mAbs (anti-B220, CD8, and CD62L, or anti-CD8α, CD8β, and Me114) bound to magnetic microbeads, or to plastic. The purified cells were stimulated either by the anti-CD3 KT3 mAb (KT/7, KT/12, KT/22, KT/23), or by an anti-Vβ8.2 mAb (Vβ/9), and addition of IL-2 or IL-2 and IL-7. After 4-5 days of culture the cells were fused with BW5147 thymoma cells. The VII68, VIII24, XVI9, and XV104 diverse TCR hybridomas were generated from CD4^+ T cells from class 110 mice, as described previously (Cardell, S. et al., J. Exp. Med., 182:993-1004 (1995)). The DN32D3 hybridoma was derived as described (Lantz, O., and Bendelac, A., J. Exp. Med., 180:1097-106 (1994).
(§2) To test for recognition of the mCD1d fusion protein and purified or synthetic antigens, 96 well protein A coated plates (Pierce Chemical Company) were incubated with 400-600 ng/well of the fusion protein or a negative control IgG2a antibody, RPC5.4 or UPC10, in PBS, at pH 7.2. Lipid antigens were diluted into PBS and added where specified at the indicated molar ratio of antigen to fusion protein, (when not specified the ratio was 40:1). Protein A plates containing the fusion protein and antigen were incubated 24-48 hr at 37° C., then washed three times with 200 μl/well sterile PBS, pH 7.2, and two times with 200 μl/well sterile culture medium (containing RPMI supplemented with L-glutamine and penicillin/streptomycin, Life Technologies, Gaithersburg, Md., and 10% bovine calf serum, Hyclone Laboratories, Logan, Utah). For assays in which the PI was phospholipase treated, it was first diluted into 0.01M Tris, 0.15M NaCl, pH 7.5, containing 0.25 U PI-specific phospholipase C or 0.5 U phospholipase D (Sigma, St Louis, Mo.), and incubated 30 minutes at room temperature, then added to the protein A plates as described above. For assays in which the pH was varied during antigen incubation with the fusion protein, the fusion protein and α-GalCer were diluted into a 20 mM citrate/phosphate buffer of the specified pH, which contained 0.15 M NaCl, and after incubation, the samples were neutralized by addition of 1M Tris, pH 7.5. Hybridoma cells were added to fusion protein/antigen treated plates at a concentration of 1×10^5 cells/well, in a total volume of 150 μl/well. Assays were performed using 2-6 replicate wells. In some assays, an anti-mCD1d blocking antibody (19G11) was included at a final concentration of 20 μg/ml. The plates were incubated at 37° C. for 16-20 hr, and culture supernatants were withdrawn for analysis. Each experiment was performed at least three times.
(§3) IL-2 secreted in the hybridoma stimulation assays was quantitated in a double antibody sandwich ELISA, by comparison to a standard curve of purified murine IL-2 (Pharmingen, San Diego, Calif.). Hybridoma plate stimulation supernatants (used either neat or diluted) and serially diluted IL-2 standards were added to 96 well ELISA plates coated with a rat anti-mouse IL-2 capture antibody (Pharmingen).

VII68 hybridoma = conditions: VII68 diverse TCR hybridoma; plate-bound mCD1d-IgGFc2a fusion protein preincubated with lipid antigen
Source text: as §1, §2
as §3, with “(Pharmingen). […]” for “(Pharmingen).”

KT/23 hybridoma = conditions: KT/23 NKT hybridoma; plate-bound mCD1d-IgGFc2a fusion protein preincubated with lipid antigen
Source text: as §1, §2
as §3, with “(Pharmingen). […]” for “(Pharmingen).”

14S.7.N hybridoma = conditions: 14S.7.N diverse TCR hybridoma; plate-bound mCD1d-IgGFc2a fusion protein preincubated with lipid antigen
Source text: as §1, §2
as §3, with “(Pharmingen). […]” for “(Pharmingen).”

XV104 hybridoma = conditions: XV104 diverse TCR hybridoma; plate-bound mCD1d-IgGFc2a fusion protein preincubated with lipid antigen
Source text: as §1, §2
as §3, with “(Pharmingen). […]” for “(Pharmingen).”

14S.15.A hybridoma = conditions: 14S.15.A diverse TCR hybridoma; plate-bound mCD1d-IgGFc2a fusion protein preincubated with lipid antigen
Source text: as §1, §2
as §3, with “(Pharmingen). […]” for “(Pharmingen).”

XV19 hybridoma = conditions: XV19 diverse TCR hybridoma; plate-bound mCD1d-IgGFc2a fusion protein preincubated with lipid antigen
Source text: as §1, §2
as §3, with “(Pharmingen). […]” for “(Pharmingen).”

KT/7 hybridoma = conditions: KT/7 NKT hybridoma; plate-bound mCD1d-IgGFc2a fusion protein preincubated with lipid antigen
Source text: as §1, §2
as §3, with “(Pharmingen). […]” for “(Pharmingen).”

KT/12 hybridoma = conditions: KT/12 NKT hybridoma; plate-bound mCD1d-IgGFc2a fusion protein preincubated with lipid antigen
Source text: as §1, §2
as §3, with “(Pharmingen). […]” for “(Pharmingen).”

24.9.E hybridoma = conditions: for IL-2 secretion: 24.9 E NKT hybridoma, plate-bound mCD1d-IgGFc2a fusion protein preincubated with lipid antigen
Source text: as §1, §2
as §3, with “(Pharmingen). […]” for “(Pharmingen).”

VIII24 hybridoma = conditions: VIII24 diverse TCR hybridoma; plate-bound mCD1d-IgGFc2a fusion protein preincubated with lipid antigen
Source text: as §1, §2
as §3, with “(Pharmingen). […]” for “(Pharmingen).”

KT/22 hybridoma = conditions: KT/22 NKT hybridoma; plate-bound mCD1d-IgGFc2a fusion protein preincubated with lipid antigen
Source text: as §1, §2
as §3, with “(Pharmingen). […]” for “(Pharmingen).”

Vβ/9 hybridoma = conditions: Vβ/9 NKT hybridoma; plate-bound mCD1d-IgGFc2a fusion protein preincubated with lipid antigen
Source text: as §1, §2
as §3, with “(Pharmingen). […]” for “(Pharmingen).”

DN32D3 hybridoma = conditions: DN32D3 NKT hybridoma; plate-bound mCD1d-IgGFc2a fusion protein preincubated with lipid antigen
Source text: as §1, §2
as §3, with “(Pharmingen). […]” for “(Pharmingen).”

24.7.C hybridoma = conditions: 24 7.C NKT hybridoma; plate-bound mCD1d-IgGFc2a fusion protein preincubated with lipid antigen
Source text: as §1, §2
as §3, with “(Pharmingen). […]” for “(Pharmingen).”

14S.6.A hybridoma = conditions: 14S.6.A diverse TCR hybridoma; plate-bound mCD1d-IgGFc2a fusion protein preincubated with lipid antigen
Source text: as §1, §2
as §3, with “(Pharmingen). […]” for “(Pharmingen).”

14S.10.C hybridoma = conditions: 14S.10 C diverse TCR hybridoma; plate-bound mCD1d-IgGFc2a fusion protein preincubated with lipid antigen
Source text: as §1, §2
as §3, with “(Pharmingen). […]” for “(Pharmingen).”

| Substance | IL-2 secretion (24.8.A hybridoma) | IL-2 secretion (VII68 hybridoma) | IL-2 secretion (KT/23 hybridoma) | IL-2 secretion (14S.7.N hybridoma) | IL-2 secretion (XV104 hybridoma) | IL-2 secretion (14S.15.A hybridoma) | IL-2 secretion (XV19 hybridoma) | IL-2 secretion (KT/7 hybridoma) | IL-2 secretion (KT/12 hybridoma) | IL-2 secretion (24.9.E hybridoma) | IL-2 secretion (VIII24 hybridoma) | IL-2 secretion (KT/22 hybridoma) | IL-2 secretion (Vβ/9 hybridoma) | IL-2 secretion (DN32D3 hybridoma) | IL-2 secretion (24.7.C hybridoma) | IL-2 secretion (14S.6.A hybridoma) | IL-2 secretion (14S.10.C hybridoma) | IL-2 response to mCD1d fusion protein pre-treated with purified or synthetic lipid (24.9.E hybridoma; 24.9.E hybridoma) |
| --- | --- | --- | --- | --- | --- | --- | --- | --- | --- | --- | --- | --- | --- | --- | --- | --- | --- | --- |
| disialoganglioside [GD1a] | 0 (A “0” indicates a mean of less than 50 pg/ml IL-2 was secreted) | 0 (A “0” indicates a mean of less than 50 pg/ml IL-2 was secreted) | 0 (A “0” indicates a mean of less than 50 pg/ml IL-2 was secreted) | 0 (A “0” indicates a mean of less than 50 pg/ml IL-2 was secreted) | 0 (A “0” indicates a mean of less than 50 pg/ml IL-2 was secreted) | 0 (A “0” indicates a mean of less than 50 pg/ml IL-2 was secreted) | 0 (A “0” indicates a mean of less than 50 pg/ml IL-2 was secreted) | 0 (A “0” indicates a mean of less than 50 pg/ml IL-2 was secreted) | 0 (A “0” indicates a mean of less than 50 pg/ml IL-2 was secreted) | 0 (A “0” indicates a mean of less than 50 pg/ml IL-2 was secreted) | 0 (A “0” indicates a mean of less than 50 pg/ml IL-2 was secreted) | 0 (A “0” indicates a mean of less than 50 pg/ml IL-2 was secreted) | 0 (A “0” indicates a mean of less than 50 pg/ml IL-2 was secreted) | 0 (A “0” indicates a mean of less than 50 pg/ml IL-2 was secreted) | 0 (A “0” indicates a mean of less than 50 pg/ml IL-2 was secreted) | 0 (A “0” indicates a mean of less than 50 pg/ml IL-2 was secreted) | 0 (A “0” indicates a mean of less than 50 pg/ml IL-2 was secreted) | – |
| gangliotriosyl ceramide [aGM2] | + (“+” indicates 50-250 pg/ml) | 0 (A “0” indicates a mean of less than 50 pg/ml IL-2 was secreted) | 0 (A “0” indicates a mean of less than 50 pg/ml IL-2 was secreted) | 0 (A “0” indicates a mean of less than 50 pg/ml IL-2 was secreted) | 0 (A “0” indicates a mean of less than 50 pg/ml IL-2 was secreted) | 0 (A “0” indicates a mean of less than 50 pg/ml IL-2 was secreted) | 0 (A “0” indicates a mean of less than 50 pg/ml IL-2 was secreted) | 0 (A “0” indicates a mean of less than 50 pg/ml IL-2 was secreted) | 0 (A “0” indicates a mean of less than 50 pg/ml IL-2 was secreted) | 0 (A “0” indicates a mean of less than 50 pg/ml IL-2 was secreted) | 0 (A “0” indicates a mean of less than 50 pg/ml IL-2 was secreted) | 0 (A “0” indicates a mean of less than 50 pg/ml IL-2 was secreted) | 0 (A “0” indicates a mean of less than 50 pg/ml IL-2 was secreted) | 0 (A “0” indicates a mean of less than 50 pg/ml IL-2 was secreted) | 0 (A “0” indicates a mean of less than 50 pg/ml IL-2 was secreted) | 0 (A “0” indicates a mean of less than 50 pg/ml IL-2 was secreted) | 0 (A “0” indicates a mean of less than 50 pg/ml IL-2 was secreted) | not recognized |
